Test results reported in patent US4436751A, “Nitrobenzyl monates antibacterial compounds” (Beecham Group Limited, priority 1980, dated 1984).
Converted amounts (≈) assume the structure as drawn.

How the values were obtained:
Format in all cases: cell-based
[1] = test system: M. hyosynoviae ATOC 25591; experiment: Anti-mycoplasmal MIC in vitro, Friis broth agarose (Table 1); conditions: 144 h
[2] = test system: M. bovigenitalium ATOC 14173; experiment: as above; conditions: 144 h
[3] = test system: Neisseria catarrhalis 1502; experiment: Human bacteria MIC, nutrient agar with chocolated horse blood (Table 3); conditions: Neisseria, 1502, 18 h
Protocol: (§1) The values were determined by serial dilutions in nutrient agar with 5% chocolated horse blood after incubations for 18 hours at 37° C.

Strep. pneumoniae CN33 = experiment: as above; conditions: Streptococcus pneumoniae, CN33, 18 h
Protocol: as §1

Strep. 2733-B = experiment: as above; conditions: 18 h
Protocol: as §1

Strep. 641848-C = experiment: as above; conditions: 18 h
Protocol: as §1

M. suipneumoniae MS 16 = experiment: Anti-mycoplasmal MIC in vitro, Friis broth agarose (Table 1); conditions: Mesomycoplasma hyopneumoniae, MS16, 144 h
S. typhimurium S18 = experiment: Veterinary bacteria MIC, Diagnostic Sensitivity Test Agar (Table 2); conditions: Salmonella enterica, TYPHIMURIUM, 18 h
Protocol: (§2) The values were determined using a two fold serial dilutions in Diagnostic Sensitivity Test Agar with an inoculum of 10^4 organisms and incubation for 18 hours at 37° C.

[4] = test system: Corynebacterium pyogenes CY1; experiment: as above; conditions: Trueperella pyogenes, CY1, 18 h
Protocol: as §2

Staph. aureus 152 = experiment: as above; conditions: Staphylococcus aureus, 152, 18 h
Protocol: as §2

Staph. aureus Oxford = experiment: as above; conditions: Staphylococcus aureus, 18 h
Protocol: as §2

Staph. aureus B4 = experiment: as above; conditions: Staphylococcus aureus, B4, 18 h
Protocol: as §2

Past. multocida PA1 = experiment: as above; conditions: Pasteurella multocida, PA1, 18 h
Protocol: as §2

Past. haemolytica PA5 = experiment: as above; conditions: Mannheimia haemolytica, PA5, 18 h
Protocol: as §2

Strep. uberis SPO1 = experiment: as above; conditions: Streptococcus uberis, SPO1, 18 h
Protocol: as §2

E. Coli NCTC 10418 = experiment: as above; conditions: Escherichia coli, NCTC10418, 18 h
Protocol: as §2

Bord. bronchiseptica BO8 = experiment: as above; conditions: Bordetella bronchiseptica, BO8, 18 h
Protocol: as §2

S. dublin S7 = experiment: as above; conditions: Salmonella enterica, S7, 18 h
Protocol: as §2

Bord. bronchiseptica BO9 = experiment: as above; conditions: Bordetella bronchiseptica, BO9, 18 h
Protocol: as §2

E. Coli E1 = experiment: as above; conditions: Escherichia coli, 18 h
Protocol: as §2

Past. multocida PA2 = experiment: as above; conditions: Pasteurella multocida, PA2, 18 h
Protocol: as §2

Strep. dylgalactiae SPD1 = experiment: as above; conditions: 18 h
Protocol: as §2

Strep. agalactiae SPA1 = experiment: as above; conditions: Streptococcus agalactiae, SPA1, 18 h
Protocol: as §2

[5] = test system: Erysipelothrix rhusiopathiae NCTC 8163; experiment: as above; conditions: Erysipelothrix rhusiopathiae, NCTC8163, 18 h
Protocol: as §2

M. suipneumoniae NB12 = experiment: Anti-mycoplasmal MIC in vitro, Friis broth agarose (Table 1); conditions: Mesomycoplasma hyopneumoniae, NB12, 144 h
M. hyorhinis ATCC 23234 = experiment: as above; conditions: Mesomycoplasma hyorhinis, ATCC23234, 144 h
M. gallisepticum S6 = experiment: as above; conditions: Mycoplasmoides gallisepticum, S6, 144 h

C/C(=C\C(=O)OCc1ccc([N+](=O)[O-])c([N+](=O)[O-])c1)CC1OCC(CC2OC2C(C)C(C)O)C(O)C1O (stereo not drawn) [Example 9, 3,4-dinitrobenzyl monate A]
MIC [1]: 0.5 µg/mL (≈ 0.953 µM)
MIC [2]: ≤ 0.01 µg/mL
MIC [3]: 0.05 µg/mL (≈ 0.0953 µM)
MIC (Strep. pneumoniae CN33): 2.5 µg/mL (≈ 4.77 µM)
MIC (Strep. 2733-B): 2.5 µg/mL (≈ 4.77 µM)
MIC (Strep. 641848-C): 2.5 µg/mL (≈ 4.77 µM)
MIC (M. suipneumoniae MS 16): 0.25 µg/mL (≈ 0.477 µM)
MIC (S. typhimurium S18): 80 µg/mL (≈ 153 µM)
MIC [4]: > 80 µg/mL
MIC (Staph. aureus 152): 0.312 µg/mL (≈ 0.595 µM)
MIC (Staph. aureus Oxford): 0.312 µg/mL (≈ 0.595 µM)
MIC (Staph. aureus B4): 0.625 µg/mL (≈ 1.19 µM)
MIC (Past. multocida PA1): 0.625 µg/mL (≈ 1.19 µM)
MIC (Past. haemolytica PA5): 5 µg/mL (≈ 9.53 µM)
MIC (Strep. uberis SPO1): 0.156 µg/mL (≈ 0.297 µM)
MIC (E. Coli NCTC 10418): 80 µg/mL (≈ 153 µM)
MIC (Bord. bronchiseptica BO8): 10 µg/mL (≈ 19.1 µM)
MIC (S. dublin S7): > 80 µg/mL
MIC (Bord. bronchiseptica BO9): 5 µg/mL (≈ 9.53 µM)
MIC (E. Coli E1): 80 µg/mL (≈ 153 µM)
MIC (Past. multocida PA2): 0.156 µg/mL (≈ 0.297 µM)
MIC (Strep. dylgalactiae SPD1): 0.07 µg/mL (≈ 0.133 µM)
MIC (Strep. agalactiae SPA1): 0.312 µg/mL (≈ 0.595 µM)
MIC [5]: 40 µg/mL (≈ 76.3 µM)
MIC (M. suipneumoniae NB12): 0.25 µg/mL (≈ 0.477 µM)
MIC (M. hyorhinis ATCC 23234): 0.25 µg/mL (≈ 0.477 µM)
MIC (M. gallisepticum S6): 5 µg/mL (≈ 9.53 µM)

C/C(=C\C(=O)OCc1cc([N+](=O)[O-])cc([N+](=O)[O-])c1)CC1OCC(CC2OC2C(C)C(C)O)C(O)C1O (stereo not drawn) [Example 6, 3,5-dinitrobenzyl monate A]
MIC [1]: 0.025 µg/mL (≈ 0.0477 µM)
MIC [2]: ≤ 0.01 µg/mL
MIC [3]: < 0.025 µg/mL
MIC (Strep. pneumoniae CN33): 0.25 µg/mL (≈ 0.477 µM)
MIC (Strep. 2733-B): 0.5 µg/mL (≈ 0.953 µM)
MIC (Strep. 641848-C): 0.5 µg/mL (≈ 0.953 µM)
MIC (M. suipneumoniae MS 16): 0.025 µg/mL (≈ 0.0477 µM)
MIC (S. typhimurium S18): 80 µg/mL (≈ 153 µM)
MIC [4]: > 80 µg/mL
MIC (Staph. aureus 152): 0.312 µg/mL (≈ 0.595 µM)
MIC (Staph. aureus Oxford): 0.312 µg/mL (≈ 0.595 µM)
MIC (Staph. aureus B4): 0.312 µg/mL (≈ 0.595 µM)
MIC (Past. multocida PA1): 1.25 µg/mL (≈ 2.38 µM)
MIC (Past. haemolytica PA5): 5 µg/mL (≈ 9.53 µM)
MIC (Strep. uberis SPO1): 0.07 µg/mL (≈ 0.133 µM)
MIC (E. Coli NCTC 10418): 80 µg/mL (≈ 153 µM)
MIC (Bord. bronchiseptica BO8): 40 µg/mL (≈ 76.3 µM)
MIC (S. dublin S7): > 80 µg/mL
MIC (Bord. bronchiseptica BO9): 10 µg/mL (≈ 19.1 µM)
MIC (E. Coli E1): 80 µg/mL (≈ 153 µM)
MIC (Past. multocida PA2): 0.625 µg/mL (≈ 1.19 µM)
MIC (Strep. dylgalactiae SPD1): 0.312 µg/mL (≈ 0.595 µM)
MIC (Strep. agalactiae SPA1): 0.312 µg/mL (≈ 0.595 µM)
MIC [5]: 20 µg/mL (≈ 38.1 µM)
MIC (M. suipneumoniae NB12): 0.05 µg/mL (≈ 0.0953 µM)
MIC (M. hyorhinis ATCC 23234): 0.025 µg/mL (≈ 0.0477 µM)
MIC (M. gallisepticum S6): 5 µg/mL (≈ 9.53 µM)
